According to patent publication US12492197B2, “3,5-disubstituted pyrazole compounds as kinase inhibitors and uses thereof” (IMPACT THERAPEUTICS (SHANGHAI), INC, priority 2019, dated 2025):

Key:
[1] = test system: human pancreatic cancer cell SW1990; assay: Proliferation of SW1990 cells, MTT assay; assay type: cell-based; conditions: SW1990, 120 h, 5 days treatment, read-out: IC50 (inhibition of proliferation of SW1990)
Experimental: Newly revived SW1990 cells (purchased from Shanghai Fuheng Biology) were cultured and passaged for at least three generations before use. Cells were used at about 90% confluency for experiments. Cells were digested with trypsinase and centrifuged at 800 rpm for 5 minutes. The cell pellets were resuspended in fresh DMEM medium and cells were counted. Cells were seeded on 96-well cell culture plates at 5000 cells/well and incubated overnight at 37° C., 5% CO2. The stock solutions of the test substances (including the test compounds and the reference compound) were serially diluted to 8 concentrations with DMSO at a ratio of 1:3. 5 μL of each serially diluted solutions was added to 120 μL of medium (diluted by 25 times) and mixed by shaking. […] The cell culture plates were returned to incubator at 37° C. and 5% CO2 for 5 days. At the end of the treatment the cell viability was determined by MTT colorimetric assay. Cell culture medium in each well was replaced by 100 μL/well of serum-free fresh medium containing MTT (0.5 mg/mL), and the culture was continued for additional 4 hours. Medium was then discarded and 100 μL/well of DMSO was added.
(§1) Data was analyzed by GraphPad Prism 6.0. The inhibitory effects of compounds on cell proliferation were plotted based on cell viability vs. the logarithm of compound concentration. Cell viability %=(ODcompound−ODbackground)/(ODDMSO−ODbackground)×100.

[2] = test system: human breast cancer cell HCC1806; assay: Proliferation of HCC1806 cells, MTT assay; assay type: cell-based; conditions: HCC1806, 72 h, 3 days treatment, read-out: IC50 (inhibition of proliferation of HCC1806)
Experimental: Newly revived HCC1806 cells (purchased from Guangzhou Genio) were cultured and passaged for at least three generations before use. Cells were used at 90% confluency for experiments. Cells were digested with trypsinase and centrifuged at 800 rpm for 5 minutes. The cell pellets were resuspended in fresh RPMI1640 medium and cells were counted. Cells were seeded on 96-well cell culture plates at 2000 cells/well and incubated overnight at 37° C., 5% CO2. The stock solutions of the test substances (including the test compounds and the reference compound) were serially diluted to 8 concentrations with DMSO at a ratio of 1:3. Five μL of each of the serially diluted solutions were added to 120 μL of medium (diluted by 25 times) and mixed by shaking. […] The cell culture plates were returned to incubator at 37° C., 5% CO2 for 3 days. At the end of treatment the cell viability was determined by MTT colorimetric assay. Cell culture medium in each well was replaced by 100 μL/well of serum-free fresh medium containing MTT (0.5 mg/mL), and the culture was continued for additional 4 hours.
as §1

CHK1 kinase = target: T1, CHK1 kinase (Homo sapiens, UniProt O14757); assay: CHK1 kinase inhibition, ADP-Glo kinase assay; assay type: biochemical; conditions: ATP 10 μM, CHK1 1 ng/well; for inhibition at 0.01 µM: compound concentration 10 nM, read-out: Inh % (inhibitory effect on CHK1 kinase activity); for IC50: read-out: IC50 (inhibitory effect on CHK1 kinase activity)
T1 construct: purchased Promega V1941
T1 sequence (O14757 1-476): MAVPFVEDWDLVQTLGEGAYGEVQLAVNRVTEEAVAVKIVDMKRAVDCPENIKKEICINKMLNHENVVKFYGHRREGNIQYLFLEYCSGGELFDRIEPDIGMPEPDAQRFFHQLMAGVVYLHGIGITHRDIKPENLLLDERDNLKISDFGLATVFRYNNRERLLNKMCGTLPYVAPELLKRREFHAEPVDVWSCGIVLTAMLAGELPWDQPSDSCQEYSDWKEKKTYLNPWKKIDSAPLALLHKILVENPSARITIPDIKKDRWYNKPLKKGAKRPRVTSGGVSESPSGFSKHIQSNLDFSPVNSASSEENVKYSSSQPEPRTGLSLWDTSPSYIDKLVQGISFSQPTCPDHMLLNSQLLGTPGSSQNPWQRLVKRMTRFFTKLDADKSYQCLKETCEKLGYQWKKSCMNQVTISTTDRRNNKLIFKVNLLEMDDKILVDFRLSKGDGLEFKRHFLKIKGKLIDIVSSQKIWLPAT
Experimental: 2 μL of kinase CHK1 (#V1941, Promega), 1 μL of compound diluted with buffer, and 2 μL of ATP substrate was successively added to a 384-well plate (final concentration of CHK1 was 1 ng/well, ATP was 10 μM). The positive control wells contained CHK1, ATP and DMSO whereas the negative control wells contained ATP, DMSO without enzyme. The mixtures were centrifuged at 1000 rpm for 1 minute and kept in darkness at room temperature for 1 hour to react. Then, 5 μL of ADP-Glo reagent was added to each well and incubated at room temperature for 40 minutes. At the end of incubation, 10 μL of kinase detection reagent was added to each well, and the relative chemiluminescence values (RLU) were measured on Varioskan® Flash (Thermo). The following calculation was performed: Inhibition rate %=(RLU of positive control−RLU of compound)/(RLU of positive control−RLU of negative control)×100. Data were analyzed using GraphPad Prism6.0 and fitted using the curve equation: Y=Bottom+(Top-Bottom)/(1+10^((Log IC50−X)*HillSlope)), and IC50 values were calculated.

[3] = test system: human colon cancer cell LoVo; assay: Proliferation of LoVo cells, MTT assay; assay type: cell-based; conditions: 96 h, 4 days treatment, read-out: IC50 (inhibition of proliferation of LoVo)
Experimental: Newly revived LoVo cells (purchased from Shanghai Cell Institute) were cultured and passaged for at least three generations before use. Cells were used at 90% confluence for experiment. Cells were digested with trypsinase and centrifuged at 800 rpm for 5 minutes and the supernatant was discarded. The cell pellets were resuspended in fresh RPMI1640 medium and counted. Cells were seeded on 96-well cell culture plates at 5000 cells/well and incubated overnight at 37° C., 5% CO2. The stock solutions of the test substances (including the test compounds and the reference compound) were serially diluted to 8 concentrations with DMSO at a ratio of 1:3. 5 μL of each series diluted solutions was added to 120 μL of medium (diluted by 25 times) and mixed by shaking. […] The cell culture plates were returned to incubator at 37° C. and 5% CO2 for 4 days. At the end of treatment, the cell viability was determined by MTT colorimetric assay. Cell culture medium in each well was replaced by 100 μL/well of serum-free DMEM medium containing MTT (0.5 mg/mL), and the culture was continued for additional 4 hours. Medium was then discarded and 100 μL/well of DMSO was added.
as §1

| IC50 [1] [nM] | IC50 [2] [nM] | inhibition at 0.01 µM (CHK1 kinase) [%] | IC50 [3] [nM] | IC50 (CHK1 kinase) [nM] | Compound |
| --- | --- | --- | --- | --- | --- |
| 287 | 394 | 50 |  |  | COc1cccc(OC[C@@H]2CNCCO2)c1-c1cc(Nc2cnc(C(F)(F)F)cn2)n[nH]1 [Example 5, (S)—N-(5-(2-methoxy-6-(morpholin-2-ylmethoxy)phenyl)-1H-pyrazol-3-yl)-5-(trifluoromethyl)pyrazin-2-amine] |
| 809 | > 1000 | 40 |  |  | COc1c(Cl)ccc(OC[C@@H]2CNCCO2)c1-c1cc(Nc2cnc(C#N)cn2)n[nH]1 [Example 15, (S)-5-((5-(3-chloro-2-methoxy-6-(morpholin-2-ylmethoxy)phenyl)-1H-pyrazol-3-yl)amino)pyrazine-2-carbonitrile] |
|  | 3.5 |  | 3.2 | 0.52 | COc1cc(F)cc(OC[C@H]2CCCNC2)c1-c1cc(Nc2cnc(C#N)cn2)n[nH]1 [Example 38, (S)-5-((5-(4-fluoro-2-methoxy-6-(piperidin-3-ylmethoxy)phenyl)-1H-pyrazol-3-yl)amino)pyrazine-2-carbonitrile] |
|  | 37.6 | 95 | 30.1 |  | COc1cccc(OC[C@H]2COCCN2)c1-c1cc(Nc2cnc(C#N)cn2)n[nH]1 [Example 7, (R)-5-((5-(2-methoxy-6-(morpholin-3-ylmethoxy)phenyl)-1H-pyrazol-3-yl)amino)pyrazine-2-carbonitrile] |
|  | 21.6 |  | 18 | 1.58 | Cc1cc(F)c(-c2cc(Nc3cnc(C#N)cn3)n[nH]2)c(OC[C@H]2CCNC2)c1 [Example 62, (S)-5-((5-(2-fluoro-4-methyl-6-(pyrrolidin-3-ylmethoxy)phenyl)-1H-pyrazol-3-yl)amino)pyrazine-2-carbonitrile] |
|  | 6.5 |  | 5.4 | 0.58 | N#Cc1cnc(Nc2cc(-c3c(O)cccc3OC[C@H]3CCCNC3)[nH]n2)cn1 [Example 48, (S)-5-((5-(2-hydroxy-6-(piperidin-3-ylmethoxy)phenyl)-1H-pyrazol-3-yl)amino)pyrazine-2-carbonitrile] |
|  | 8.7 |  | 9.1 | 1.72 | COc1cc(Cl)cc(OCC2CNC2)c1-c1cc(Nc2cnc(C#N)cn2)n[nH]1 [Example 67, 5-((5-(2-(azetidin-3-ylmethoxy)-4-chloro-6-methoxyphenyl)-1H-pyrazol-3-yl)amino)pyrazine-2-carbonitrile] |
|  | 31.7 | 91 | 25.6 |  | COc1cccc(OC[C@H]2CCCN(C)C2)c1-c1cc(Nc2cnc(C#N)cn2)n[nH]1 [Example 32, (S)-5-((5-(2-methoxy-6-((1-methylpiperidin-3-yl)methoxy)phenyl)-1H-pyrazol-3-yl)amino)pyrazine-2-carbonitrile] |
|  | 129 | 95 | 83.8 |  | CCc1cnc(Nc2cc(-c3c(OC)cccc3OC[C@H]3CCCNC3)[nH]n2)cn1 [Example 27, (S)-5-ethyl-N-(5-(2-methoxy-6-(piperidin-3-ylmethoxy)phenyl)-1H-pyrazol-3-yl)pyrazin-2-amine] |
|  | 1.6 |  | 1.6 | 1.17 | COc1cc(C)cc(OC[C@H]2CCCNC2)c1-c1cc(Nc2cnc(C#N)cn2)n[nH]1 [Example 43, (S)-5-((5-(2-methoxy-4-methyl-6-(piperidin-3-ylmethoxy)phenyl)-1H-pyrazol-3-yl)amino)pyrazine-2-carbonitrile] |
|  | 69.2 | 89 | 70.8 |  | COc1cccc(OC[C@H]2CCCNC2)c1-c1cc(Nc2ccc(C#N)cn2)n[nH]1 [Example 24, (S)-6-((5-(2-methoxy-6-(piperidin-3-ylmethoxy)phenyl)-1H-pyrazol-3-yl)amino)nicotinonitrile] |
|  | 60 |  | 60.8 | 2.27 | N#Cc1cnc(Nc2cc(-c3c(F)cc(Br)cc3OC[C@H]3CCCNC3)[nH]n2)cn1 [Example 59, (S)-5-((5-(4-bromo-2-fluoro-6-(piperidin-3-ylmethoxy)phenyl)-1H-pyrazol-3-yl)amino)pyrazine-2-carbonitrile] |
|  | 187 | 85 | 192 |  | COc1cccc(OC[C@@H]2CNCCO2)c1-c1cc(Nc2cnc(C)cn2)n[nH]1 [Example 6, (S)—N-(5-(2-methoxy-6-(morpholin-2-ylmethoxy)phenyl)-1H-pyrazol-3-yl)-5-methylpyrazin-2-amine] |
|  | 32.4 | 97 | 26 |  | COc1cccc(OC[C@H]2CCCCN2)c1-c1cc(Nc2cnc(C#N)cn2)n[nH]1 [Example 33, (R)-5-((5-(2-methoxy-6-(piperidin-2-ylmethoxy)phenyl)-1H-pyrazol-3-yl)amino)pyrazine-2-carbonitrile] |
|  | 698 | 63 | 807 |  | CC(C)Oc1cccc(OC[C@H]2CCCNC2)c1-c1cc(Nc2cnc(C#N)cn2)n[nH]1 [Example 36, (S)-5-((5-(2-isopropoxy-6-(piperidin-3-ylmethoxy)phenyl)-1H-pyrazol-3-yl)amino)pyrazine-2-carbonitrile] |
|  | 2.8 |  | 2.3 | 0.44 | COc1cc(Cl)cc(OC[C@H]2CCNC2)c1-c1cc(Nc2cnc(C#N)cn2)n[nH]1 [Example 68, (S)-5-((5-(4-chloro-2-methoxy-6-(pyrrolidin-3-ylmethoxy)phenyl)-1H-pyrazol-3-yl)amino)pyrazine-2-carbonitrile] |
|  | 31.4 | 91 | 31.2 |  | COc1cc(C(F)(F)F)cc(OC[C@@H]2CNCCO2)c1-c1cc(Nc2cnc(C#N)cn2)n[nH]1 [Example 19, (S)-5-((5-(2-methoxy-6-(morpholin-2-ylmethoxy)-4-(trifluoromethyl)phenyl)-1H-pyrazol-3-yl)amino)pyrazine-2-carbonitrile] |
